Consider 13 compounds from US4970199A, “Steroidal glycolipids as host resistance stimulators against viral infection” (priority 1989, dated 1990).

In data set [1] the test system is HIV. The note with it: cited from earlier work.
For data set [2], the system named is reverse transcriptase in several retroviruses. The conditions noted are these: in vitro; cited from earlier work.
Data set [3] has as its system human immunodeficiency virus (HIV). The conditions noted are these: cited from earlier work.
The conditions of data set [4]: cited from earlier work.
Data set [5] has as its system HIV. The note with it: clinical trials; cited from earlier work.
Data set [6] relates to Pseudomonas aeruginosa. Nature of the data set: Stimulation of host resistance: protection of cyclophosphamide-immunocompromised mice from Pseudomonas aeruginosa infection. Type of data set: in vivo, Pseudomonas aeruginosa (Immunotype 1), in CF1 female mice. The note with it: Table 3, CY-treated mice, dose not printed in table (initial test dose 40 mg per kg). How it is done: Groups of 15-20 CF1 female mice (Charles River Breeding, Cambridge, Mass.) weighing 22-28 gm were injected intraperitoneally (i.p.) with cyclophosphamide (Cytoxan; CY) at 250 mg per kg body weight. One to two hours later they were typically injected again with the test material by the route specified. Four days later, the mice were divided into groups of five, each of which were injected i.p. with a different dilution of a suspension of Pseudomonas aeruginosa (Immunotype 1). The number of survivors was determined periodically and an estimate was made of the number of CFU of Pseudomonas organisms necessary to cause 50% lethality by the cumulative method of L. J. Reed and H. Muench (Am. J. Hygiene 27 (1938) 493-497). A protective index (P.I.) was defined as the LD50 for the mice receiving cyclophosphamide and the test compound divided by the LD50 for the mice receiving cyclophosphamide alone. All control mice were injected with aqueous vehicle in the same route and schedule as the test animals.
MATERIALS. All compounds for dosing were suspended in a sterile medium referred to as "aqueous vehicle" which contains 0.9% sodium chloride, 0.5% carboxymethyl cellulose, 0.4% Tween 80, and 0.9% benzyl alcohol unless otherwise stated. Test materials were evaluated via subcutaneous (s.c.), i.p., intramuscular (i.m.), orally (p.o.). and intravenous (i.v.) routes of administration. […]

Data set [7] has as its system Mycobacterium avium-intracellulare. The note with it: human, in vivo; cited from earlier work.
The test system of data set [8] is Herpes Simplex Virus-1 (HSV1). As to the kind of experiment: Antiviral experiment in mice infected IP with Herpes Simplex Virus-1. The class given is in vivo, HSV1 (Schloser), in ICR mice. How it is done: An antiviral experiment was conducted to compare treatment with 6-(5-Cholesten-3β-yloxy)hexyl 1-thio-β-D-mannopyranoside (Example 2) in mice infected IP with Herpes Simplex Virus-1 (HSV1) immediately before (post treatment) or after 5 days of treatment (pretreatment).
Ten mice (ICR, 20 gm, mixed sexes) were pretreated by SC injection of a 0.1 mL suspension of test compound twice a day for 4 days. On day 5, the mice were injected IP with 0.5 mL solution of HSV1 (Schloser, 10-5). The post treatment group was infected with HSV1 prior to administration of test compound. Day of death from time of infection with HSV1 was recorded for each mouse and average day of death per treatment group was calculated.

For data set [9] the following is noted: cited from earlier work. This is another data set of the same source.
Data set [10] deals with Kaposi's sarcoma. The conditions noted are these: in vivo; cited from earlier work.

“Also recorded” adds a separate entry of the source.

As for “ammonium 21-tungsto-9-antimoniate [HPA-23]”, in data set [1], the “therapeutic benefit or clinical improvement in AIDS patients” value is recorded as “no therapeutic benefit has been documented in AIDS patients”. Further, the “reverse transcriptase inhibition, several retroviruses” value in data set [2] is on record as “Inhibits reverse transcriptase in several retroviruses in vitro”. In data set [3], the “growth of HIV” value is recorded as “some tendency to check the growth of HIV”. `CC(C)(N1CC1C#N)N1CC1C(N)=O` (stereo not drawn) [Azimexon]: the “symptoms and immune function” value in data set [1] (early trial, ARC and AIDS patients) is “improvements in symptoms and immune function in patients with ARC but not AIDS”. Besides, the toxic effect result in data set [4] (early trial, disappeared when treatment ceased) is on record as “only toxic effect was mild hemolysis”. In the case of `CC(C)(S)[C@@H](N)C(=O)O` [D-Penicillamine, 3-mercapto-D-valine], in data set [5], the “HIV reproduction / viral replication in patients” value is reported as “Inhibits HIV reproduction in humans; also recorded: suppressed the virus”.

`CC[C@H](/C=C/[C@@H](C)[C@H]1CC[C@H]2[C@@H]3CC=C4C[C@@H](OCCCCCCS[C@@H]5O[C@H](CO)[C@@H](O)[C@H](O)[C@@H]5O)CC[C@]4(C)[C@H]3CC[C@]12C)C(C)C` [Example 6, 6-(Stigmasta-5,22-dien-3β-yloxy)hexyl 1-thio-β-D-mannopyranoside]: the “Protective Index (log)” value in data set [6] was determined as 2.0 log. Turning to `CO[C@H]1/C=C/O[C@@]2(C)Oc3c(C)c(O)c4c(c3C2=O)C2=NC3(CCN(CC(C)C)CC3)NC2=C(NC(=O)/C(C)=C\C=C\[C@H](C)[C@H](O)[C@@H](C)[C@@H](O)[C@@H](C)[C@H](OC(C)=O)[C@@H]1C)C4=O` [Ansamycin, rifabutin], the “efficacy in AIDS patients with opportunistic infection” value in data set [7] is given as “some efficacy in treating AIDS patients with an opportunistic infection”. For the compound `NC(=O)c1ncn([C@@H]2O[C@H](CO)[C@@H](O)[C@H]2O)n1` [Ribavirin, 1-β-D-ribofuranosyl-1,2,4-triazole-3-carboxamide], the “immune function in ARC or AIDS patients” value in data set [1] (human, in vivo) is on record as “improved immune function in AIDS patients”. In addition, the “HIV reproduction / viral replication in patients” value in data set [5] is reported as “inhibited viral replication”. For the same compound, in [4] (in vivo), the safety profile entry was “acceptable” and the tolerability result is recorded as “well tolerated”. With `CC(C)CCC[C@@H](C)[C@H]1CC[C@H]2[C@@H]3CC=C4C[C@@H](OCCCCCCS[C@@H]5O[C@H](CO)[C@@H](O)[C@H](O)[C@@H]5O)CC[C@]4(C)[C@H]3CC[C@]12C` [Example 2, 6-(5-Cholesten-3β-yloxy)hexyl 1-thio-β-D-mannopyranoside], in [8] (50 mg/kg twice a day for four days), the “protection from fatal viral infection over placebo treated animals, by day of death” value is “statistically enhanced protection from fatal viral infection over placebo treated animals”. The “protection of pretreated mice over the post treatment group” value in [8] (pretreatment vs post treatment) was “statistically enhanced protection over the post treatment group”. As to `O=C(O)P(=O)(O)O` [Foscarnet, trisodium phosphonoformate], the side effects entry in [4] (in vivo) is “serious side effects”. Consider `CC(=O)NC(C)C1CCC2C3CC=C4CC(OCCCCCCSC5OC(CO)C(O)C(O)C5O)CCC4(C)C3CCC12C` [Example 11, 6-(20S-Acetamido-pregn-5-en-3β-yloxy)hexyl 1-thio-β-D-mannopyranoside], for which the “Protective Index (log)” value in data set [6] came out at 3.0 log. As to `Cc1cn([C@H]2C[C@H](N=[N+]=[N-])[C@@H](CO)O2)c(=O)[nH]c1=O` [AZT, 3'-azido-3'-deoxythymidine], the “prolonging lives of patients with AIDS or ARC” value in data set [1] (human, in vivo) is listed as “show promise in prolonging lives of patients with AIDS or AIDS-related complex (ARC)”. For the same compound, the “half-life in the body” value in [9] (in vivo) was “relatively short half-life in the body”. Also, the oral absorption result in data set [9] (oral) is listed as “Well absorbed orally”. Besides, the toxicity entry in [4] (in vivo) is “some toxicity, with anemia and headaches”. In the case of α-Interferon, the “growth of HIV” value in [3] is given as “Checks the growth of HIV in vitro”. Further, the “tumor regression in AIDS-related Kaposi's sarcoma” value in [10] was “induced tumor regression in some AIDS-related Kaposi's sarcoma cases”. In the case of `Cc1ccc(C(=O)Nc2ccc(S(=O)(=O)O)c3cc(S(=O)(=O)O)cc(S(=O)(=O)O)c23)cc1NC(=O)c1cccc(NC(=O)Nc2cccc(C(=O)Nc3cc(C(=O)Nc4ccc(S(=O)(=O)O)c5cc(S(=O)(=O)O)cc(S(=O)(=O)O)c45)ccc3C)c2)c1` [Suramin], the “therapeutic benefit or clinical improvement in AIDS patients” value in [1] is listed as “little or no evidence of clinical improvement or immunologic recovery”. As to `CC(=O)Nc1ccc(C(=O)O)cc1.CC(=O)Nc1ccc(C(=O)O)cc1.CC(=O)Nc1ccc(C(=O)O)cc1.CC(O)CN(C)C.CC(O)CN(C)C.CC(O)CN(C)C.O=c1[nH]cnc2c1ncn2[C@@H]1O[C@H](CO)[C@@H](O)[C@H]1O` [Inosine pranobex], the “immune function in ARC or AIDS patients” value in [1] (human, in vivo) is on record as “improve immune function in ARC patients”.
